# Source: patent US9776965B2, “Pyrrolidin-2-one and piperidin-2-one derivatives as 11-beta hydroxysteroid dehydrogenase inhibitors” (Janssen Pharmaceutica N.V., priority 2004, dated 2017)
# Assays:
# 11b-HSD1 [1] = target: T1, 11b-HSD1 (Mus musculus, UniProt P50172); experiment: Cellular assay, 11b-HSD1 activity in differentiated 3T3-L1 cells; assay type: cell-based; settings: 4 hour pre-incubation; for IC50: read-out: [C2] HSD1 cellular 3T3-L1 Score
# T1 construct: Fibroblasts were differentiated into adipocytes; endogenous in cells; host or cells: differentiated 3T3-L1 cells (ATCC-CL-173)
# T1 sequence (P50172 whole entry): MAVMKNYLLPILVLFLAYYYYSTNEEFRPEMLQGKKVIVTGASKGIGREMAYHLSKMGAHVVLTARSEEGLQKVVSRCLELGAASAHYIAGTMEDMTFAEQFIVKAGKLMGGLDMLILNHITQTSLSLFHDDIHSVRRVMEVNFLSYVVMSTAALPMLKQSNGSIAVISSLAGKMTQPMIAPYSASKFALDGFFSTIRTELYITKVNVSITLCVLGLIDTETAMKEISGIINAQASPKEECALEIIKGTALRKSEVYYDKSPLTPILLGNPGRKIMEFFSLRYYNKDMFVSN
# Experimental: The effects on 11b-HSD1 activity was measured in differentiated 3T3-L1 cells and rat hepatocytes.
# Mouse fibroblast 3T3-L1 cells (ATCC-CL-173) were seeded at a density of 16500 cells/ml in 12 well plates and grown for 7 days in DMEM medium (supplemented with 10% heat inactivated foetal calf serum, 2 mM glutamine and 25 mg gentamycin) at 37 C in a humidified 5% CO2 atmosphere. Medium was refreshed twice a week. Fibroblasts were differentiated into adipocytes at 37 C in a 5% CO2 humidified atmosphere in growth medium containing 2 μg/ml insulin, 55 μg/ml IBMX and 39.2 μg/ml dexamethasone.
# Following a 4 hour pre-incubation with test compound, 0.5 μCi ^3H-cortisone or dehydrocorticosterone, was added to the cultures. One hour later, the medium was extracted on Extrelut^3-columns with 15 ml diethyl ether and the extract was analysed by HPLC as described above.
# As for the enzymatic assays, the compounds to be tested were taken from a stock solution and tested at a final concentration ranging from […] to 3.10^−9M. From the thus obtained dose response curves, the pIC50 value was calculated and scored as follows; Score 1=pIC50 value<5, Score 2=pIC50 value in the range of 5 to 6, Score 3=pIC50 value>6. Some of the thus obtained results are summarized in the table below (in this table NT stands for Not Tested).
# 11b-HSD1 [2] = target: 11b-HSD1 (Homo sapiens, UniProt P28845); experiment: Enzymatic assay, 11b-HSD1 dependent conversion of cortisone into cortisol (reductase activity); assay type: biochemical; settings: recombinant protein, 2 μM cortisone, 45 min at 37 C; for IC50: read-out: [C1] HSD1-prot Reduct Score
# 11b-HSD1 (Homo sapiens, UniProt P28845), sequence (P28845 whole entry): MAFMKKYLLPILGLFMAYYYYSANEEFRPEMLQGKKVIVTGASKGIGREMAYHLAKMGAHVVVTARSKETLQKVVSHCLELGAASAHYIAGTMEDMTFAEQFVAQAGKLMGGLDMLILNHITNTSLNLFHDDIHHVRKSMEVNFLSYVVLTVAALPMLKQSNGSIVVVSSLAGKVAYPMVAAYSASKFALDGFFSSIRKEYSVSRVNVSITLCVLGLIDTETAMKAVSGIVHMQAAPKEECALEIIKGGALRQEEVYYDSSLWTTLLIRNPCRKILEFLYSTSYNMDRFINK
# Experimental: The effects of compounds on 11b-HSD1 dependent conversion of cortisone into cortisol (reductase activity) was studied in a reaction mixture containing 30 mM Tris-HCl buffer pH 7.2, 180 μM NADPH, 1 mM EDTA, 2 μM cortisone, 1 μl drug and/or solvent and 11 μg recombinant protein in a final volume of 100 μl.
# All incubations were performed for 45 min at 37 C in a water bath. The reaction was stopped by adding 100 μl acetonitrile containing 20 μg corticosterone as internal standard. After centrifugation, the product formation was analysed in the supernatant by HPLC on a Hypersyl BDS-C18 column using 0.05 mM ammonium acetate/methanol (50/50) as solvent. In all of the aforementioned assays, the drugs to be tested were taken from a stock solution and tested at a final concentration ranging from […] to 3.10^−9M. From the thus obtained dose response curves, the pIC50 value was calculated and scored as follows; Score 1=pIC50 value<5, Score 2=pIC50 value in the range of 5 to 6, Score 3=pIC50 value>6. (in this table NT stands for Not Tested).
IC50 (11b-HSD1 [1]),IC50 (11b-HSD1 [2]),[C1] HSD1-prot Reduct Score (11b-HSD1 [2]),SMILES,[C2] HSD1 cellular 3T3-L1 Score (11b-HSD1 [1])
> 10000 nM,> 10000 nM,–,COc1ccc(CC[C@H]2CCN([C@@H](C)c3ccccc3)C2=O)cc1OC [Compound 126],–
1000 to 10000 nM,< 1000 nM,–,C[C@@H](c1ccccc1)N1CC[C@H](CCc2cccc3ccccc23)C1=O [Compound 75],–
1000 to 10000 nM,< 1000 nM,–,CC[C@@H](c1ccccc1)N1CC[C@@H](Cc2c(Cl)cccc2Cl)C1=O [Compound 95],–
> 10000 nM,> 10000 nM,–,C[C@H](c1ccccc1)N1CC[C@@H](Cc2cccc(Cl)c2)C1=O [Compound 46],–
–,–,3 (Score 3=pIC50 value>6),Cc1cccc(C)c1C[C@@H]1CCN([C@@H](C)c2ccccc2)C1=O [Compound 76],2 (Score 2=pIC50 value in the range of 5 to 6)
1000 to 10000 nM,1000 to 10000 nM,–,C[C@H](C[C@@H]1CCN([C@@H](C)c2ccccc2)C1=O)c1ccccc1 [Compound 136],–
1000 to 10000 nM,1000 to 10000 nM,–,C[C@H](c1ccccc1)N1CC[C@H](Cc2cccc(Cl)c2Cl)C1=O [Compound 43],–
1000 to 10000 nM,> 10000 nM,–,N#Cc1ccccc1CC1CCN(Cc2ccccc2)C1=O (centres unmarked) [Compound 54],–
1000 to 10000 nM,1000 to 10000 nM,–,C[C@@H](c1ccccc1)N1CC[C@H](CCc2c(F)cccc2Cl)C1=O [Compound 129],–
1000 to 10000 nM,> 10000 nM,–,COc1cccc(CC2CCN(Cc3ccccc3)C2=O)c1 (centres unmarked) [Compound 48],–
< 1000 nM,1000 to 10000 nM,–,C[C@@H](c1ccccc1)N1CC[C@H](Cc2ccc3c(c2)OCO3)C1=O [Compound 152],–
1000 to 10000 nM,< 1000 nM,–,O=C1C(Cc2c(Cl)cccc2Cl)CCN1CCc1ccc(Br)cc1 (centres unmarked) [Compound 82],–
1000 to 10000 nM,> 10000 nM,–,C[C@@H](c1ccccc1)N1CC[C@@H](CCc2ccccc2)C1=O [Compound 72],–
> 10000 nM,> 10000 nM,–,"O=C1C(Cc2c(Cl)cccc2Cl)CCN1[C@H](Cc1ccccc1)c1ccccc1 (single isomer, unassigned) [Compound 103]",–
< 1000 nM,< 1000 nM,–,COC[C@H](c1ccccc1)N1CC[C@@H](Cc2c(Cl)cccc2Cl)C1=O [Compound 99],–
< 1000 nM,< 1000 nM,–,C[C@@H](c1ccccc1)N1CC[C@@H](Cc2ccc(F)cc2Cl)C1=O [Compound 151],–
< 1000 nM,< 1000 nM,–,C[C@H](C[C@H]1CCN([C@@H](C)c2ccccc2)C1=O)c1ccccc1 [Compound 137],–
1000 to 10000 nM,< 1000 nM,–,C[C@@H](c1ccccc1)N1CC[C@H](CCc2ccccc2)C1=O [Compound 73],–
1000 to 10000 nM,1000 to 10000 nM,–,COc1ccccc1C[C@@H]1CCN([C@@H](C)c2ccccc2)C1=O [Compound 8],–
1000 to 10000 nM,> 10000 nM,–,COC[C@H](c1ccccc1)N1CC[C@H](Cc2c(Cl)cccc2Cl)C1=O [Compound 98],–
< 1000 nM,1000 to 10000 nM,–,Cc1ccc([C@H](O)[C@H]2CCN([C@@H](C)c3ccccc3)C2=O)c(C)c1 [Compound 91],–
1000 to 10000 nM,1000 to 10000 nM,–,O=C1C(Cc2ccc(F)cc2F)CCN1CCc1ccccc1 (centres unmarked) [Compound 108],–
1000 to 10000 nM,1000 to 10000 nM,–,Cc1cccc(C)c1CC1CCN(CCCc2ccccc2)C1=O (centres unmarked) [Compound 113],–
> 10000 nM,> 10000 nM,–,Cc1ccccc1CC1(Cc2ccccc2)CCN([C@@H](C)c2ccccc2)C1=O (mixture of isomers) [Compound 147],–
< 1000 nM,< 1000 nM,–,C[C@H](c1ccccc1)[C@H]1CCN([C@@H](C)c2ccccc2)C1=O [Compound 159],–
1000 to 10000 nM,> 10000 nM,–,O=C1C(Cc2ccccc2)CCN1CCc1ccccc1 (centres unmarked) [Compound 34],–
< 1000 nM,1000 to 10000 nM,–,O=C1C(Cc2c(F)cccc2F)CCN1CCc1ccccc1 (centres unmarked) [Compound 84],–
> 10000 nM,–,–,C[C@H](c1ccccc1)N1CCC(C)(c2ccccc2)C1=O (some centres unmarked) [Compound 167],–
1000 to 10000 nM,–,–,C[C@@H](c1ccccc1)N1CCC(C)(c2ccccc2)C1=O (some centres unmarked) [Compound 166],–
